ChEMBL document CHEMBL1130489, “Synthesis and anti-HIV activity of some new aminoadamantane heterocycles” (Bioorg Med Chem Lett, 1997)

Experiments:
Settings in all cases: Homo sapiens
MT4 [1] = experiment: Concentration required to protect MT-4 cells against the cytopathogenicity of HIV-1 (IIIB/LAI); type: functional, cell-based
MT4 [2] = experiment: Concentration required to protect MT-4 cells against the cytopathogenicity of HIV-2 (ROD); type: functional, cell-based
MT4 [3] = experiment: Cytotoxic concentration required to reduce the viability of MT-4 cells by 50%; type: functional

Row | Structure (SMILES) | EC50 (MT4 [1]) | EC50 (MT4 [2]) | CC50 (MT4 [3])
1 | CN(C)CCN1CCCCC1C12CC3CC(CC(C3)C1)C2 (configuration not stated) | 40.8 µM | > 276 µM | 274 µM
2 | C1CCC(C23CC4CC(CC(C4)C2)C3)NC1 (configuration not stated) | > 403 µM | > 403 µM | 403 µM
3 | c1ccc(CN2CCCCC2C23CC4CC(CC(C4)C2)C3)cc1 (configuration not stated) | > 64 µM | > 64 µM | 62.7 µM
4 | S=C(Nc1ccc(Cl)cc1Cl)N1CCCCC1C12CC3CC(CC(C3)C1)C2 (configuration not stated) | > 19 µM | > 19 µM | 17.7 µM
5 | C1CCN(CC2CC2)C(C23CC4CC(CC(C4)C2)C3)C1 (configuration not stated) | 75.2 µM | > 265 µM | 263 µM
6 | CCN1CCCCC1C12CC3CC(CC(C3)C1)C2 (configuration not stated) | > 419 µM | > 419 µM | 417 µM
7 | O=C(Nc1ccc(Cl)cc1)N1CCCCC1C12CC3CC(CC(C3)C1)C2 (configuration not stated) | > 13 µM | > 13 µM | 12.6 µM
8 | C1CCN(CCN2CCCCC2C23CC4CC(CC(C4)C2)C3)CC1 (configuration not stated) | 3.6 µM | > 54 µM | 52.6 µM
9 | CN1CCCCC1C12CC3CC(CC(C3)C1)C2 (configuration not stated) | > 415 µM | > 415 µM | 413 µM
